# Data: patent US20240417410A1, “TRICYCLIC COMPOUNDS FOR THE TREATMENT OF CANCER” (Hoffmann-La Roche Inc., priority 2023, published 2024)
# Read-outs that look alike come from different tables or passages of the source.
# Key:
# Assay in all cases: Cell proliferation, CTG 3D, 7 d
# Format in all cases: cell-based
# [1] = system: THP-1; conditions: Homo sapiens; THP-1, NRAS (p.G12D)
# Method: (§1) On Day-1, cells were plated in 384-well round-bottom ultra-low adhesion plates (cat. Corning 3830, with cell density adjusted according to Table 3. The assay plate was then centrifuged at 1000 rpm for 1 minute to ensure even distribution of cells. The plate was incubated at 37° C. in a 5% CO2 atmosphere (It is worth noting that for SW1271 cell plate, it needs to be incubated in an incubator without additional CO2).
# (§2) On Day 0, Example 24 or A122 was added to each well using a Tecan HP D300E dispenser, with a 3-fold dilution across 9 doses. The final concentration of DMSO was normalized to 0.2%. The assay plate was then centrifuged at 1000 rpm for 1 minute and incubated for 7 days.
# (§3) On Day 7, CellTiter-Glo (CTG) 3D reagent (Promega G9683) was dispensed into each well of a 384-well plate using a multi-drop dispenser (Thermo Scientific 66413). A liquid handling automation workstation (Bravo with a 384-well head) was used to mix the CTG reagents. Plates were left on a shaker for 30 minutes at 450 rpm, shielded from light.
# (§4) For data analysis, the XL-fit software (Supplier: ID Business Solutions Ltd., Software version: XL fit 5.0) was utilized. The percentage of inhibition was calculated using the formula: Inhibition %=(Max-Sample value)/(Max-Min)×100. Curve fitting was performed as follows: For complete dose-response curves, the relative IC50 was reported from the fit. For incomplete curves, if minimal inhibition was greater than 50%, an IC50 less than the lowest compound concentration was reported. If minimal inhibition was between 20% and 50%, the bottom was locked at 0% and the IC50 was reported. If maximal inhibition was less than 50%, an IC50 greater than the highest compound concentration was reported.
# [2] = system: NOMO-1; conditions: Homo sapiens
# Method: as §1, §2, §3, §4
# [3] = system: UMC-11; conditions: Homo sapiens; UMC-11, KRAS (WT ampl)
# Method: as §1, §2, §3, §4
# [4] = system: OCI-Ly19; conditions: Homo sapiens
# Method: as §1, §2, §3, §4
# [5] = system: NCI-H1734; conditions: Homo sapiens
# Method: as §1, §2, §3, §4
# [6] = system: NCI-H727; conditions: Homo sapiens; NCI-H727, KRAS (G12V)
# Method: as §1, §2, §3, §4
# [7] = system: LS513; conditions: Homo sapiens, LS-513; LS513, KRAS (G12D)
# Method: as §1, §2, §3, §4
# [8] = system: KNS-62; conditions: Homo sapiens
# Method: as §1, §2, §3, §4
# [9] = system: NCI-H1573; conditions: Homo sapiens
# Method: as §1, §2, §3, §4
# [10] = system: SUM 159PT; conditions: Homo sapiens, HRAS (p.G12D)
# Method: as §1, §2, §3, §4
# [11] = system: LS1034; conditions: Homo sapiens, LS-1034
# Method: as §1, §2, §3, §4
# [12] = system: HCT-116; conditions: Homo sapiens
# Method: as §1, §2, §3, §4
# [13] = system: NCI-H1792; conditions: Homo sapiens; NCI-H1792, KRAS (G12C)
# Method: as §1, §2, §3, §4
# [14] = system: MKN-1; conditions: Homo sapiens; MKN-1, KRAS (WT ampl)
# Method: as §1, §2, §3, §4
# [15] = system: NCI-H441; conditions: Homo sapiens; NCI-H441, KRAS (G12V)
# Method: as §1, §2, §3, §4
# [16] = system: HT1080; conditions: Homo sapiens, HT-1080
# Method: as §1, §2, §3, §4
# [17] = system: KMS-28BM; conditions: Homo sapiens
# Method: as §1, §2, §3, §4
# [18] = system: HAL-01; conditions: Homo sapiens
# Method: as §1, §2, §3, §4
# [19] = system: AsPc-1; conditions: Homo sapiens, ASPC1; AsPc-1, KRAS (G12D)
# Method: as §1, §2, §3, §4
# [20] = system: MM.1S; conditions: Homo sapiens, MM1.S
# Method: as §1, §2, §3, §4
# [21] = system: NCI-H1944; conditions: Homo sapiens
# Method: as §1, §2, §3, §4
# [22] = system: SW 480; conditions: Homo sapiens, SW480; SW 480, KRAS (G12V)
# Method: as §1, §2, §3, §4
# [23] = system: HepG2; conditions: Homo sapiens
# Method: as §1, §2, §3, §4
# [24] = system: GA-10; conditions: Homo sapiens; GA-10, NRAS (p.G12V)
# Method: as §1, §2, §3, §4
# [25] = system: SK-N-SH; conditions: Homo sapiens
# Method: as §1, §2, §3, §4
# [26] = system: SNU-387; conditions: Homo sapiens
# Method: as §1, §2, §3, §4
# [27] = system: SW620; conditions: Homo sapiens, SW-620; SW620, KRAS (G12V)
# Method: as §1, §2, §3, §4
compound,measurement,setting,value
"CO[C@@H](C)c1ncc(N2CCN(C)CC2)cc1-c1c2c3cc(cc4c3n1CCC4)-c1csc(n1)C[C@H](NC(=O)[C@H]1[C@H](C)[C@@H]1C)C(=O)N1CCC[C@H](N1)C(=O)OCC(C)(C)C2 (atropisomer, axis not shown; (M)) [Example 24, (1r,2R,3S)-N-[(7S,13S)-(20M)-20-[2-[(1S)-1-methoxyethyl]-5-(4-methylpiperazin-1-yl)-3-pyridyl]-17,17-dimethyl-8,14-dioxo-15-oxa-4-thia-9,21,30,31-tetrazahexacyclo[23.3.1.1^2,5.1^9,13.0^19,27.0^21,26]hentriaconta-1 (28),2,5 (31), 19,25 (29),26-hexaen-7-yl]-2,3-dimethyl-cyclopropanecarboxamide]",IC50,[1],0.26 nM
same,IC50,"[2]; NOMO-1, KRAS (G13D), read-out: IC50",0.47 nM
same,IC50,[3],100 nM
same,IC50,"[4]; OCI-Ly19, NRAS (p.Q61K), read-out: IC50",1.9 nM
same,IC50,"[5]; NCI-H1734, KRAS (G13C), read-out: IC50",0.74 nM
same,IC50,[6],0.14 nM
same,IC50,[7],0.68 nM
same,IC50,"[8]; KNS-62, HRAS (p.Q61L), read-out: IC50",2.6 nM
same,IC50,"[9]; NCI-H1573, KRAS (G12A), read-out: IC50",0.82 nM
same,IC50,[10],4.5 nM
same,IC50,"[11]; LS1034, KRAS (A146T), read-out: IC50",12 nM
same,IC50,"[12]; HCT-116, KRAS (G13D), read-out: IC50",1.9 nM
same,IC50,[13],0.21 nM
same,IC50,[14],28 nM
same,IC50,[15],0.25 nM
same,IC50,"[16]; HT1080, NRAS (p.Q61K), read-out: IC50",0.36 nM
same,IC50,"[17]; KRAS (G12A), read-out: IC50",0.63 nM
same,IC50,"[18]; HAL-01, NRAS (p.G12S), read-out: IC50",13 nM
same,IC50,[19],0.65 nM
same,IC50,"[20]; MM.1S, KRAS (G12A), read-out: IC50",0.3 nM
same,IC50,"[21]; NCI-H1944, KRAS (G13D), read-out: IC50",1.6 nM
same,IC50,[22],1.2 nM
same,IC50,"[23]; HepG2, NRAS (p.Q61L), read-out: IC50",2.1 nM
same,IC50,[24],1000 nM
same,IC50,"[25]; NRAS (p.Q61K), read-out: IC50",1000 nM
same,IC50,"[26]; SNU-387, NRAS (p.Q61K), read-out: IC50",0.43 nM
same,IC50,[27],0.1 nM
"CCn1c(-c2cc(N3CCN(C)CC3)cnc2[C@H](C)OC)c2c3cc(ccc31)-c1csc(n1)C[C@H](NC(=O)[C@H]1C[C@@H]1C)C(=O)N1CCC[C@H](N1)C(=O)OCC(C)(C)O2 [Example A122, reference compound]",IC50,[1],0.18 nM
same,IC50,[2]; NOMO-1,0.86 nM
same,IC50,[3],100 nM
same,IC50,[4]; OCI-LY19,2.4 nM
same,IC50,[5]; NCI-H1734,1.3 nM
same,IC50,[6],0.16 nM
same,IC50,[7],0.47 nM
same,IC50,[8]; KNS-62,6.4 nM
same,IC50,[9]; NCI-H1573,1.2 nM
same,IC50,[10],3 nM
same,IC50,[11],7.3 nM
same,IC50,[12]; HCT-116,1.9 nM
same,IC50,[13],0.43 nM
same,IC50,[14],40 nM
same,IC50,[15],0.49 nM
same,IC50,[16],0.49 nM
same,IC50,[17],0.88 nM
same,IC50,[18]; HAL-01,14 nM
same,IC50,[19],0.55 nM
same,IC50,[20],0.55 nM
same,IC50,[21]; NCI-H1944,1.7 nM
same,IC50,[22],2 nM
same,IC50,[23]; HepG2,5.5 nM
same,IC50,[24],1000 nM
same,IC50,[25],580 nM
same,IC50,[26]; SNU-387,1.1 nM
same,IC50,[27],0.23 nM
